Results reported in the OligoGym collection.
Oligonucleotides are written 5' to 3', each unit as a sugar letter and its base; * is a phosphorothioate linkage, no mark a phosphodiester; rarer units and linkages stand in square brackets, end groups in braces. Plain capitals give the bases only. Oligonucleotides are given in HELM: sugar(base)linkage, 5' to 3'; d 2'-deoxyribose, r ribose, m 2'-O-methylribose, p phosphate. ss, as = sense and antisense strand; d = 2'-deoxy (DNA); r = 2'-OH (RNA)

biological target: CDC34; assay: reporter assay of Huesken 2005; conditions: siRNA
Further: test concentration or dose not given here.

Substance	normalised inhibition (eCFP-eYFP dual reporter)
RNA1{r(A)p.r(A)p.r(C)p.r(G)p.r(U)p.r(G)p.r(G)p.r(A)p.r(C)p.r(G)p.r(C)p.r(C)p.r(U)p.r(C)p.r(C)p.r(G)p.r(U)p.r(G)p.r(A)p.d(T)p.d(T)}|RNA2{r(U)p.r(C)p.r(A)p.r(C)p.r(G)p.r(G)p.r(A)p.r(G)p.r(G)p.r(C)p.r(G)p.r(U)p.r(C)p.r(C)p.r(A)p.r(C)p.r(G)p.r(U)p.r(U)p.d(T)p.d(G)}$$$RNA1{StrandType:ss}|RNA2{StrandType:as}$	55.2%
RNA1{r(A)p.r(A)p.r(G)p.r(A)p.r(C)p.r(C)p.r(A)p.r(A)p.r(G)p.r(G)p.r(C)p.r(G)p.r(C)p.r(C)p.r(G)p.r(G)p.r(C)p.r(G)p.r(C)p.d(T)p.d(T)}|RNA2{r(G)p.r(C)p.r(G)p.r(C)p.r(C)p.r(G)p.r(G)p.r(C)p.r(G)p.r(C)p.r(C)p.r(U)p.r(U)p.r(G)p.r(G)p.r(U)p.r(C)p.r(U)p.r(U)p.d(C)p.d(A)}$$$RNA1{StrandType:ss}|RNA2{StrandType:as}$	25.5%
RNA1{r(A)p.r(A)p.r(G)p.r(A)p.r(U)p.r(G)p.r(U)p.r(G)p.r(G)p.r(C)p.r(A)p.r(C)p.r(C)p.r(C)p.r(U)p.r(A)p.r(A)p.r(C)p.r(A)p.d(T)p.d(T)}|RNA2{r(U)p.r(G)p.r(U)p.r(U)p.r(A)p.r(G)p.r(G)p.r(G)p.r(U)p.r(G)p.r(C)p.r(C)p.r(A)p.r(C)p.r(A)p.r(U)p.r(C)p.r(U)p.r(U)p.d(G)p.d(G)}$$$RNA1{StrandType:ss}|RNA2{StrandType:as}$	36.7%
RNA1{r(A)p.r(C)p.r(A)p.r(G)p.r(A)p.r(C)p.r(A)p.r(U)p.r(C)p.r(A)p.r(U)p.r(C)p.r(C)p.r(G)p.r(G)p.r(A)p.r(A)p.r(G)p.r(C)p.d(T)p.d(T)}|RNA2{r(G)p.r(C)p.r(U)p.r(U)p.r(C)p.r(C)p.r(G)p.r(G)p.r(A)p.r(U)p.r(G)p.r(A)p.r(U)p.r(G)p.r(U)p.r(C)p.r(U)p.r(G)p.r(U)p.d(G)p.d(T)}$$$RNA1{StrandType:ss}|RNA2{StrandType:as}$	34.9%
RNA1{r(A)p.r(C)p.r(C)p.r(A)p.r(U)p.r(U)p.r(C)p.r(U)p.r(C)p.r(C)p.r(U)p.r(G)p.r(A)p.r(G)p.r(U)p.r(G)p.r(U)p.r(G)p.r(A)p.d(T)p.d(T)}|RNA2{r(U)p.r(C)p.r(A)p.r(C)p.r(A)p.r(C)p.r(U)p.r(C)p.r(A)p.r(G)p.r(G)p.r(A)p.r(G)p.r(A)p.r(A)p.r(U)p.r(G)p.r(G)p.r(U)p.d(C)p.d(C)}$$$RNA1{StrandType:ss}|RNA2{StrandType:as}$	81.3%
RNA1{r(A)p.r(C)p.r(C)p.r(C)p.r(C)p.r(A)p.r(C)p.r(G)p.r(C)p.r(A)p.r(G)p.r(A)p.r(A)p.r(C)p.r(G)p.r(U)p.r(C)p.r(A)p.r(G)p.d(T)p.d(T)}|RNA2{r(C)p.r(U)p.r(G)p.r(A)p.r(C)p.r(G)p.r(U)p.r(U)p.r(C)p.r(U)p.r(G)p.r(C)p.r(G)p.r(U)p.r(G)p.r(G)p.r(G)p.r(G)p.r(U)p.d(T)p.d(C)}$$$RNA1{StrandType:ss}|RNA2{StrandType:as}$	57.8%
RNA1{r(A)p.r(C)p.r(C)p.r(U)p.r(C)p.r(U)p.r(U)p.r(C)p.r(U)p.r(A)p.r(C)p.r(G)p.r(A)p.r(C)p.r(G)p.r(A)p.r(C)p.r(U)p.r(A)p.d(T)p.d(T)}|RNA2{r(U)p.r(A)p.r(G)p.r(U)p.r(C)p.r(G)p.r(U)p.r(C)p.r(G)p.r(U)p.r(A)p.r(G)p.r(A)p.r(A)p.r(G)p.r(A)p.r(G)p.r(G)p.r(U)p.d(C)p.d(T)}$$$RNA1{StrandType:ss}|RNA2{StrandType:as}$	89.3%
RNA1{r(A)p.r(C)p.r(G)p.r(C)p.r(U)p.r(G)p.r(G)p.r(C)p.r(C)p.r(G)p.r(A)p.r(G)p.r(U)p.r(A)p.r(C)p.r(U)p.r(G)p.r(C)p.r(G)p.d(T)p.d(T)}|RNA2{r(C)p.r(G)p.r(C)p.r(A)p.r(G)p.r(U)p.r(A)p.r(C)p.r(U)p.r(C)p.r(G)p.r(G)p.r(C)p.r(C)p.r(A)p.r(G)p.r(C)p.r(G)p.r(U)p.d(G)p.d(G)}$$$RNA1{StrandType:ss}|RNA2{StrandType:as}$	52.4%
RNA1{r(A)p.r(C)p.r(G)p.r(U)p.r(C)p.r(A)p.r(G)p.r(G)p.r(A)p.r(C)p.r(C)p.r(A)p.r(U)p.r(U)p.r(C)p.r(U)p.r(C)p.r(C)p.r(U)p.d(T)p.d(T)}|RNA2{r(A)p.r(G)p.r(G)p.r(A)p.r(G)p.r(A)p.r(A)p.r(U)p.r(G)p.r(G)p.r(U)p.r(C)p.r(C)p.r(U)p.r(G)p.r(A)p.r(C)p.r(G)p.r(U)p.d(T)p.d(C)}$$$RNA1{StrandType:ss}|RNA2{StrandType:as}$	72.2%
RNA1{r(A)p.r(C)p.r(U)p.r(A)p.r(C)p.r(G)p.r(A)p.r(G)p.r(G)p.r(G)p.r(C)p.r(G)p.r(G)p.r(C)p.r(U)p.r(A)p.r(C)p.r(U)p.r(U)p.d(T)p.d(T)}|RNA2{r(A)p.r(A)p.r(G)p.r(U)p.r(A)p.r(G)p.r(C)p.r(C)p.r(G)p.r(C)p.r(C)p.r(C)p.r(U)p.r(C)p.r(G)p.r(U)p.r(A)p.r(G)p.r(U)p.d(A)p.d(G)}$$$RNA1{StrandType:ss}|RNA2{StrandType:as}$	73.7%
RNA1{r(A)p.r(G)p.r(C)p.r(A)p.r(A)p.r(G)p.r(G)p.r(G)p.r(G)p.r(A)p.r(A)p.r(G)p.r(G)p.r(A)p.r(U)p.r(C)p.r(G)p.r(G)p.r(G)p.d(T)p.d(T)}|RNA2{r(C)p.r(C)p.r(C)p.r(G)p.r(A)p.r(U)p.r(C)p.r(C)p.r(U)p.r(U)p.r(C)p.r(C)p.r(C)p.r(C)p.r(U)p.r(U)p.r(G)p.r(C)p.r(U)p.d(C)p.d(T)}$$$RNA1{StrandType:ss}|RNA2{StrandType:as}$	41.2%
RNA1{r(A)p.r(G)p.r(G)p.r(A)p.r(A)p.r(G)p.r(A)p.r(G)p.r(C)p.r(C)p.r(G)p.r(G)p.r(U)p.r(C)p.r(G)p.r(A)p.r(G)p.r(G)p.r(G)p.d(T)p.d(T)}|RNA2{r(C)p.r(C)p.r(C)p.r(U)p.r(C)p.r(G)p.r(A)p.r(C)p.r(C)p.r(G)p.r(G)p.r(C)p.r(U)p.r(C)p.r(U)p.r(U)p.r(C)p.r(C)p.r(U)p.d(G)p.d(C)}$$$RNA1{StrandType:ss}|RNA2{StrandType:as}$	44.3%
RNA1{r(A)p.r(G)p.r(G)p.r(U)p.r(G)p.r(G)p.r(A)p.r(A)p.r(C)p.r(C)p.r(C)p.r(C)p.r(A)p.r(C)p.r(G)p.r(C)p.r(A)p.r(G)p.r(A)p.d(T)p.d(T)}|RNA2{r(U)p.r(C)p.r(U)p.r(G)p.r(C)p.r(G)p.r(U)p.r(G)p.r(G)p.r(G)p.r(G)p.r(U)p.r(U)p.r(C)p.r(C)p.r(A)p.r(C)p.r(C)p.r(U)p.d(C)p.d(T)}$$$RNA1{StrandType:ss}|RNA2{StrandType:as}$	72.6%
RNA1{r(C)p.r(A)p.r(A)p.r(G)p.r(G)p.r(C)p.r(G)p.r(C)p.r(C)p.r(G)p.r(G)p.r(C)p.r(G)p.r(C)p.r(C)p.r(C)p.r(G)p.r(A)p.r(C)p.d(T)p.d(T)}|RNA2{r(G)p.r(U)p.r(C)p.r(G)p.r(G)p.r(G)p.r(C)p.r(G)p.r(C)p.r(C)p.r(G)p.r(G)p.r(C)p.r(G)p.r(C)p.r(C)p.r(U)p.r(U)p.r(G)p.d(G)p.d(T)}$$$RNA1{StrandType:ss}|RNA2{StrandType:as}$	26.8%
RNA1{r(C)p.r(A)p.r(C)p.r(C)p.r(C)p.r(G)p.r(C)p.r(C)p.r(G)p.r(G)p.r(U)p.r(G)p.r(G)p.r(A)p.r(C)p.r(G)p.r(A)p.r(C)p.r(C)p.d(T)p.d(T)}|RNA2{r(G)p.r(G)p.r(U)p.r(C)p.r(G)p.r(U)p.r(C)p.r(C)p.r(A)p.r(C)p.r(C)p.r(G)p.r(G)p.r(C)p.r(G)p.r(G)p.r(G)p.r(U)p.r(G)p.d(G)p.d(A)}$$$RNA1{StrandType:ss}|RNA2{StrandType:as}$	25.4%
RNA1{r(C)p.r(A)p.r(C)p.r(U)p.r(G)p.r(G)p.r(U)p.r(G)p.r(G)p.r(A)p.r(C)p.r(G)p.r(A)p.r(G)p.r(G)p.r(G)p.r(C)p.r(G)p.r(A)p.d(T)p.d(T)}|RNA2{r(U)p.r(C)p.r(G)p.r(C)p.r(C)p.r(C)p.r(U)p.r(C)p.r(G)p.r(U)p.r(C)p.r(C)p.r(A)p.r(C)p.r(C)p.r(A)p.r(G)p.r(U)p.r(G)p.d(T)p.d(C)}$$$RNA1{StrandType:ss}|RNA2{StrandType:as}$	75.5%
RNA1{r(C)p.r(A)p.r(G)p.r(G)p.r(U)p.r(C)p.r(C)p.r(U)p.r(G)p.r(G)p.r(G)p.r(G)p.r(A)p.r(C)p.r(C)p.r(A)p.r(A)p.r(G)p.r(G)p.d(T)p.d(T)}|RNA2{r(C)p.r(C)p.r(U)p.r(U)p.r(G)p.r(G)p.r(U)p.r(C)p.r(C)p.r(C)p.r(C)p.r(A)p.r(G)p.r(G)p.r(A)p.r(C)p.r(C)p.r(U)p.r(G)p.d(C)p.d(T)}$$$RNA1{StrandType:ss}|RNA2{StrandType:as}$	43%
RNA1{r(C)p.r(C)p.r(A)p.r(C)p.r(C)p.r(C)p.r(G)p.r(C)p.r(C)p.r(G)p.r(G)p.r(U)p.r(G)p.r(G)p.r(A)p.r(C)p.r(G)p.r(A)p.r(C)p.d(T)p.d(T)}|RNA2{r(G)p.r(U)p.r(C)p.r(G)p.r(U)p.r(C)p.r(C)p.r(A)p.r(C)p.r(C)p.r(G)p.r(G)p.r(C)p.r(G)p.r(G)p.r(G)p.r(U)p.r(G)p.r(G)p.d(A)p.d(G)}$$$RNA1{StrandType:ss}|RNA2{StrandType:as}$	44.2%

biological target: UBE2I; assay: reporter assay of Huesken 2005; conditions: siRNA

Substance	normalised inhibition (eCFP-eYFP dual reporter)
sense rUrGrUrGrCrCrUrGrUrCrCrArUrCrUrUrArGrAdTdT / antisense rUrCrUrArArGrArUrGrGrArCrArGrGrCrArCrAdCdT	76%
sense rUrGrUrUrUrArArArCrUrArCrGrGrArUrGrCrUdTdT / antisense rArGrCrArUrCrCrGrUrArGrUrUrUrArArArCrAdAdG	68.1%
sense rUrUrArArArCrUrArCrGrGrArUrGrCrUrUrUrUdTdT / antisense rArArArArGrCrArUrCrCrGrUrArGrUrUrUrArAdAdC	50.2%
sense rUrUrCrArArArGrArUrGrArUrUrArUrCrCrArUdTdT / antisense rArUrGrGrArUrArArUrCrArUrCrUrUrUrGrArAdAdA	65.2%
sense rUrUrCrArCrCrCrGrArArUrGrUrGrUrArCrCrCdTdT / antisense rGrGrGrUrArCrArCrArUrUrCrGrGrGrUrGrArAdAdT	49.6%
sense rUrUrCrGrArArCrCrArCrCrArUrUrArUrUrUrCdTdT / antisense rGrArArArUrArArUrGrGrUrGrGrUrUrCrGrArAdTdT	59.1%
